Legend:
[1] = in vivo; cited from earlier work
[2] = solubility in receiver medium; format: physicochemical; details: 0.02% sodium azide solution, skin surface temperature 32°±1° C.
[3] = without some form of permeation enhancement; cited from earlier work
[4] = injectable esters; cited from earlier work

C[C@]12CCC(=O)C=C1CC[C@@H]1[C@@H]2CC[C@@]2(C)[C@H]1CC[C@]2(C)O [methyl testosterone]
hepatotoxicity [1]: known to be hepatotoxic

C[C@]12CC[C@H]3[C@@H](CCC4=CC(=O)CC[C@@]43C)[C@@H]1CC[C@@H]2O [testosterone]
solubility in receiver medium [2]: adequate to ensure sink conditions throughout the experiment
passage through non-scrotal skin [3]: does not pass through non-scrotal skin at practical fluxes

CCC(=O)O[C@H]1CC[C@H]2[C@@H]3CCC4=CC(=O)CC[C@]4(C)[C@H]3CC[C@]12C [testosterone propionate]
fluctuations in hormone levels [4]: marked supraphysiological fluctuations in hormone levels

CCCCCCC(=O)O[C@H]1CC[C@H]2[C@@H]3CCC4=CC(=O)CC[C@]4(C)[C@H]3CC[C@]12C [testosterone enanthate]
fluctuations in hormone levels [4]: marked supraphysiological fluctuations in hormone levels

— patent US5460820A, “Methods for providing testosterone and optionally estrogen replacement therapy to women” (TheraTech, Inc., priority 1993, dated 1995)
